Results on 9 compounds are retold here after patent publication US20100249408A1, “USE OF NOVEL COMPOUND HAVING AFFINITY FOR AMYLOID, AND PROCESS FOR PRODUCTION OF THE SAME” (NIHON MEDI-PHYSICS CO., LTD., priority 2007, published 2010).

Like-named read-outs stand apart in the source and are kept apart here.

For data set [1] the following is noted: International Publication No. WO03/106439; cited from earlier work.
The target of data set [2] is T1, intracerebral amyloid (aggregated Aβ1-42 injected into amygdaloid nucleus) (Homo sapiens, UniProt P05067).
T1 construct: Aβ1-42 (manufactured by Peptide Institute) was dissolved in phosphate buffer (pH 7.4); purchased Peptide Institute
T1 sequence (P05067 672-713): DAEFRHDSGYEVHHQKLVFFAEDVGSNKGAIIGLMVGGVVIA
Briefly: ex vivo autoradiogram using rats of amyloid injected model (Examples II-13, II-14). The following applies: rat with Aβ1-42 amyloid suspension in one amygdaloid nucleus, tail vein, brain removed 60 minutes after injection. Details: species or system male Wistar rat. How it is done:
As a control, 2.5 μL of a phosphate buffered physiological saline solution (pH 7.4) was injected into an amygdaloid nucleus on the other side of the rat. The rats were examined 1 day after the injection of the amyloid suspension and the phosphate buffered physiological saline solution (pH 7.4).
(4) Brain was removed 60 minutes after the injection to prepare a brain slice of 10 μm in thickness with a microtome (type: CM3050S, manufactured by LEICA).

Data set [3] can be described thus: Partition coefficient based on the octanol extraction method (logPoctanol). The following applies: octanol / 10 mmol/L phosphate buffer (pH 7.4), radioactivity count. How it is done:
10 μL each of the prepared sample solution was respectively added to 2 mL of octanol, further, 2 mL of 10 mmol/L phosphate buffer (pH 7.4) was added, and stirred for 30 seconds. […] Using the obtained radioactivity count, log Poctanol was calculated in accordance with the equation (2).

Data set [4] in a line: Transferability into brain and clearance (Examples II-11, II-12, Comparative Example II-1). The following applies: rats, intravenous injection, three animals. How it is done:
Using the Compounds 10 and 11, a time course change of radioactive accumulation in brain of male Wistar rats (7-week old) was measured.
The rats were sacrificed by bleeding from abdominal artery, and brains were removed and subjected to measurement of mass of brains and further subjected to measurement of radioactivity (hereinafter referred to as A in this Example) with a single channel analyzer (detector type: SP-20 manufactured by OHYO KOKEN KOGYO Co., Ltd.) 2, 5, 30 and 60 minutes after the injection. Also, radioactivity (hereinafter referred to as B in this Example) of the rest of the whole body was measured in the same manner as above. Using these measurement results, radioactive accumulation per unit weight of brain (% ID/g) at the respective time points were calculated in accordance with the following formula (4).
Three animals were used for experiment at the respective time points.

For data set [5] the following is noted: [125I]-labeled compounds, normal mice; cited from earlier work.
For data set [6], the system named is Salmonella typhimurium TA100. Briefly: Reverse mutation test (Ames test), TA100. The following applies: Table 6; 7 dosages (geometric ratio 4), maximum 5000 μg/plate. Type of data set: cell-based. How it is done: (§1) In order to examine gene mutagenicity of Compounds 1, 2 and 4, reverse mutation test using Salmonella typhimurium TA98 and TA100 (hereinafter referred to as Ames test) was conducted.
(§2) The test was conducted without addition of S9mix and with addition of S9mix. Dimethylsulfoxide was used as a negative control. A positive control was 2-(2-furyl)-3-(5-nitro-2-furyl)acrylamide in case S9mix was not added, and 2-aminoanthracene in case S9 mix was added.
(§3) The amount of each sample to be added to the test plate was 7 dosages (geometric ratio 4) with the maximum dose being 5000 μg/plate. After a sample to be examined and a strain (TA98 or TA100), or a sample to be examined, S9mix and the strain were mixed together, the mixture was multilayered using soft agar on a medium of a test plate, and then incubated at 37° C. for 48 hours.
(§4) In order to examine gene mutagenicity of Compound 8, reverse mutation test using Salmonella typhimurium TA98 and TA100 (hereinafter referred to as Ames test) was conducted.
(§5) The test was conducted without addition of S9mix and with addition of S9mix. Dimethylsulfoxide was used as a negative control. A positive control was 2-(2-furyl)-3-(5-nitro-2-furyl)acrylamide in case S9mix was not added, and 2-aminoanthracene in case S9mix was added.
(§6) The amount of Compound 8 to be added to the test plate was 7 dosages (geometric ratio 3) with the maximum dose being 5000 μg/plate. After Compound 8 and a strain (TA98 or TA100), or Compound 8, S9mix and the strain were mixed together, the mixture was multilayered using soft agar on a medium of a test plate, and then incubated at 37° C. for 48 hours.
A general note: The Ames test uses bacterial strains that need an amino acid and regain growth without it when mutated back.

The target of the next data set is T2, amyloid (amylin) (Homo sapiens, UniProt P10997).
T2 construct: Amylin (human) (manufactured by Wako) was dissolved in phosphate buffer (pH 7.4); purchased Wako
T2 sequence (P10997 34-70 limits assumed): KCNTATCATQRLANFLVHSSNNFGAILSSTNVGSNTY
Briefly: Inhibition of binding of Thioflavin T to amyloid derived from amylin. The following applies: Thioflavin T 5 μmol/L, amyloid 2.6 μmol/L. How it is done:
Amylin is an amyloid accumulating in pancreas of type II diabetes.
(3) The amyloid suspension was dissolved in 50 mM phosphate buffer (pH 7.4) at a concentration of amylin of 15 μM.
(4) Samples in which each compound for evaluation and amyloid were dissolved in a 50 mM phosphate buffer (pH 7.4) at final concentrations shown in Table 9 were prepared.
(5) A sample in which 100 μL of 50 mM phosphate buffer (pH 7.4) and 50 μL of 50 mM glycin-NaOH buffer (pH 8.5) were mixed was made as a blank, and subjected to the same procedure as in (4) and used for a calculation of inhibition ratio (hereinafter referred to as BG).
(6) The microplate filled with the sample solutions was left to stand at room temperature for 30 hours. Then, fluorescence strength of each sample solution was measured (measurement conditions: excitation wavelength of 446nm, emission wavelength of 490 nm) with microplate reader (type: SPECTRA MAX GEMINI XS, manufactured by Molecular Devices) (hereinafter, A denotes the fluorescence strength in a sample with zero (0) concentration of each compound for evaluation, and B denotes the fluorescence strength in a sample with 1.5 μmol/L or higher concentration of each compound for evaluation).
(7) Using the fluorescence strength measured above in (6), the following formula (5): […]
was used to determine the inhibition ratio.

Data set [7] deals with T3, amyloid (aggregated Aβ1-40) (Homo sapiens, UniProt P05067).
T3 construct: Aβ1-40 (Peptide Institute) was dissolved in phosphate buffer (pH 7.4); purchased Peptide Institute
T3 sequence (P05067 672-711 limits assumed): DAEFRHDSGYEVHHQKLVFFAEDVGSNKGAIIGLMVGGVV
Briefly: Measurement of amyloid affinity: in vitro binding test, inhibition of [125I]3′-I-BTA-0 binding. How it is done:
Affinity of the present compounds with amyloid was examined by the following in vitro binding tests.
(1) Aβ1-40 (Peptide Institute) was dissolved in phosphate buffer (pH 7.4) and shaken at 37° C. for 62-72 hours, to obtain a suspension of aggregated Aβ (concentration: 1 mg/mL equivalent, hereinafter referred to as amyloid suspension in these Examples).
(3) According to the method described in a literature (Wang, Y., et al., J. Labeled Compounds Radiopharmaceut. 44, 5239 (2001)), [^125I]2-(3′-iodo-4′-aminophenyl)benzothiazole (hereinafter referred to as [^125I]3′-I-BTA-0) was prepared from a labeling precursor 2-(4′-aminophenyl)benzothiazole, and dissolved in ethanol. [^125I]sodium iodide of 12-71 MBq (10-30 μL in volume) was used for the production, to obtain [^125I]3′-I-BTA-0 of 1-22 MBq immediately after the synthesis.
(5) Samples in which [^125I]3′-I-BTA-0, each compound for evaluation and amyloid were dissolved in a 0.1% bovine serum albumin-containing phosphate buffer (pH 7.4) at final concentrations shown in Table 2 were prepared. The resulting samples were placed in each well (about 0.3 mL in volume) of a 96-well microplate.
(6) The microplate filled with the sample solutions was shaken at a given rate (400 rpm) at 22° C. for 3 hours. Then, each sample solution was filtered through a glass fiber filter (trade name: Mulutiscreen™-FC, manufactured by Millipore), to separate the [^125I3′-I-BTA-0 attached to amyloid from the [^125I]3′-I-BTA-0 free from amyloid.
(7) The glass fiber filter used for the filtration of each sample solution was washed with a 0.1% bovine serum albumin-containing phosphate buffer (pH 7.4) (0.5 mL×5), and radioactivity of the glass fiber filter was measured with an autowell gamma system (manufactured by Aloka, Type: ARC-301B).
(8) Separately, a solution containing 15 μmol/L of 6-Me-BTA-2, 400 pmol/L of [^125I]3′-I-BTA-0 and 1 μmol/L of Aβ1-40 in a 0.1% bovine serum albumin-containing phosphate buffer (pH 7.4) was prepared and subjected to the same procedures as described above in (6) and (7) to measure a radioactivity level. The measured radioactivity level was defined as the background radioactivity level, and used in the calculation of the inhibition ratio (hereinafter referred to as BG).
(9) Using the radioactivity levels measured above in (7) and (8), the inhibition ratio was determined by the following formula (1).
A graph in which values converted by probit transformation from the obtained inhibition ratios were plotted relative to logarithms of concentrations of compounds for evaluation was prepared to obtain an approximate straight line by the least square method. Using the line, the concentration of each compound for evaluation was determined, at which the radioactivity level is half of the level of the sample free from each compound for evaluation, and was defined as a 50% inhibition concentration of each compound (hereinafter referred to as IC50% value). Using the value as an indicator, affinity of each compound for evaluation with amyloid (aggregated Aβ1-40) was evaluated.

Data set [8] has as its system Salmonella typhimurium TA98 and TA100. Briefly: Reverse mutation test (Ames test), overall judgment. As to conditions: TA98 and TA100, with and without S9mix, up to 5000 μg/plate (geometric ratio 4). Type of data set: cell-based. The protocol: as §1, §2, §3, §4, §5, §6
Data set [9] has as its system Salmonella typhimurium TA98. Briefly: Reverse mutation test (Ames test), TA98. The following applies: Table 6; 7 dosages (geometric ratio 4), maximum 5000 μg/plate. Format: cell-based. How it is done: as §1, §2, §3, §4, §5, §6
For data set [10] the following is noted: [11C]-labeled, rats; cited from earlier work.

For the compound `CC(=C(C#N)C#N)c1ccc2cc(N(C)CCF)ccc2c1` [FDDNP, 2-(1-{6-[(2-fluoroethyl)(methyl)amino]-2-naphthyl}ethylidene)malononitrile], the “Result in reverse mutation test” value in data set [1] is “positive”.
With `Oc1ccc(-c2cn3cc([123I])ncc3n2)cc1` [Compound 10, [^123I]-2-(4′-hydroxyphenyl)-6-iodoimidazo[1,2-a]pyrazine], the “Accumulation of radioactivity at intracerebral amyloid (ex vivo autoradiogram)” value in [2] was “a marked accumulation of radioactivity was observed in the amygdaloid nucleus on the side to which the amyloid suspension was injected”. For the same compound, in data set [3], the logPoctanol value amounted to 2.3. The “Radioactive accumulation in brain per unit weight” value in data set [4] (after 2 min.) is reported as 0.62 % ID/g; in data set [4] (after 5 min.) it was 0.33 % ID/g; in data set [4] (after 30 min.) it was 0.08 % ID/g; in [4] (after 60 min.) it was 0.02 % ID/g.
On to `CN(C)c1ccc(-c2nc3ccc(I)cc3s2)cc1` [TZDM, 6-iodo-2-[4′-(N,N-dimethylamino)phenyl]benzothiazole], for which the “Clearance from normal tissues” value in [5] is “insufficient in clearance from normal tissues”.
Regarding `Oc1ccc(-c2cn3cccc([123I])c3n2)cc1` [Compound 11, [^123I]-2-(4′-hydroxyphenyl)-8-iodoimidazo[1,2-a]pyridine], in [2], the “Accumulation of radioactivity at intracerebral amyloid (ex vivo autoradiogram)” value is recorded as “a marked accumulation of radioactivity was observed in the amygdaloid nucleus on the side to which the amyloid suspension was injected”. Besides, in data set [3], the logPoctanol value came to 3.0. The “Radioactive accumulation in brain per unit weight” value is recorded as 0.65 % ID/g in [4] (after 2 min.), 0.43 % ID/g in data set [4] (after 5 min.), 0.09 % ID/g in [4] (after 30 min.) and 0.03 % ID/g in data set [4] (after 60 min.).
As to `CN(C)c1ccc(-c2cn3cc(I)ccc3n2)cc1` [IMPY, 6-iodo-2-[4′-(N,N-dimethylamino)phenyl]imidazo[1,2-a]pyridine], the “Result in reverse mutation test” value in [1] was “positive”.
Consider `CN(C)c1ccc(/C=C/c2ccc(I)cc2)cc1` [m-I-SB, (E)-4-dimethylamino-4′-iodostilbene], for which the “Clearance from normal tissues” value in [5] is given as “insufficient in clearance from normal tissues”.
The IC50 is the point on the concentration scale where inhibition reaches its midpoint. Read a low IC50 as higher potency. For the compound `Oc1ccc(-c2cn3cc(I)ccc3n2)cc1` [Compound 2, 2-(4′-hydroxyphenyl)-6-iodoimidazo[1,2-a]pyridine], in data set [6], the “Mutagenicity, TA100, with addition of S9mix” value is on record as “Negative” and the “Mutagenicity, TA100, without addition of S9mix” value is “Negative”. For the same compound, at amyloid (amylin) (compound 1.5 μmol/L), the “Inhibition ratio (%) of binding of amyloid (amylin) to Thioflavin T” value (shortened to “Inhibition ratio (%)”) was found to be 11.2%. The “Inhibition ratio (%)” value at amyloid (amylin) (compound 15 μmol/L) was determined as 16.3%. The “Inhibition ratio (%)” value at amyloid (amylin) (compound 30 μmol/L) stood at 32.0%. The IC50 in [7] was 46 nM. Also, the “Judgment in the Ames test (gene mutagenicity)” value in [8] is recorded as “negative”. For the same compound, in [9], the “Mutagenicity, TA98, with addition of S9mix” value is given as “Negative” and the “Mutagenicity, TA98, without addition of S9mix” value was “Negative”.
In the case of `CNc1ccc(/C=C/c2ccc(O)cc2)cc1` [SB-13, (E)-4-methylamino-4′-hydroxystilbene], the “Clearance from normal tissues” value in data set [10] is listed as “it cannot be said that the clearance is sufficiently fast”.
For the compound `CN(C)c1ccc(-c2nc3ccc(I)cc3o2)cc1` [IBOX, 6-iodo-2-[4′-(N,N-dimethylamino)phenyl]benzoxazole], the “Clearance from normal tissues” value in [5] is “insufficient in clearance from normal tissues”.
